{"source": "patent US20060286630A1", "about": "“Posh interacting proteins and related methods” (Proteologics, Inc., priority 2003, published 2006)", "key": {"[1]": {"test_system": "HBV", "assay": "Inhibition of HBV production in HepG2.2.15 cells", "format": "cell-based", "details": "3 μM, treated every 24 hours for 4 days, FIG. 35 lanes 7 and 8", "method": "HepG2.2.15 cells were plated on 9 cm dishes and allowed to grow in 8% FCS for 5 days up to 70% confluence. After 5 days, cells were washed twice with PBS and re-supplied with fresh DMEM without FCS. In this medium, cells were treated every 24 hours with the depicted solutions (3 μl solution/11 ml medium) for another 4 days (4 treatments total). After 4 days, medium was collected from each plate, viruses were sedimented and analyzed.\nDetection of HBV proteins was performed essentially as described in Paran, N et al (2001) EMBO J 20(16):4443-4453."}, "[2]": {"test_system": "HIV-1", "details": "Cartier et al., 2003, J Biol Chem., 278:35211-9; cited from earlier work"}, "[3]": {"test_system": "HIV-1", "details": "H89 50 μM; HeLa SS6 cells transfected with pNLenv-1; VLPs collected twenty minutes after shift from 20° C. to 37° C.", "protocol": "HeLa SS6 cells were transfected with pNLenv-1PTAP or pNLenv-1ATAA (L-domain mutant). Eighteen hours post-transfection, cells were transferred to 20° C. for two hours in order to inhibit transport of viral particles from the trans-Golgi (TGN) to the plasma membrane (PM). Subsequently, the PKA inhibitor, H89 (50 μM) (Biosource, Cat. No. PHZ1114) or DMSO were added to the cells and dishes were transferred to 37° C. to initiate transport from the TGN to the PM. Reverse transcriptase activity was assayed from virus-like-particles collected from cell supernatant twenty minutes later."}, "[4]": {"test_system": "Bacterially expressed recombinant maltose-binding-protein (MBP)-hPOSH [MBP: P0AEX9]"}}}
{"compound": "O=C1C=CC(=O)N1c1ccc(OC(F)(F)C(F)F)c(N2C(=O)C=CC2=O)c1", "note": "[CAS number 14567-55-4]", "values": [{"measurement": "HBV production", "setting": "[1]", "result": "inhibit HBV production"}]}
{"compound": "Oc1c(Br)cc(Cl)cc1/C=N/c1ccccc1Br", "note": "[CAS number 414908-38-0]", "values": [{"measurement": "HBV production", "setting": "[1]", "result": "inhibit HBV production"}]}
{"compound": "O=S(=O)(NCCNCC=Cc1ccc(Br)cc1)c1cccc2cnccc12", "note": "[H89, N-[2-((Pbromocinnamyl)amino)ethyl]isoquinolinesulfonamide]", "values": [{"measurement": "HIV-1 release from cells", "setting": "[2]", "result": "able to block HIV-1 release from cells"}, {"measurement": "RT activity of virus-like particles collected from cell supernatant", "setting": "[3]", "result": "complete inhibition"}]}
{"compound": "PKA catalytic subunit (PKAc)", "values": [{"measurement": "in-vitro phosphorylation of MBP-hPOSH by PKA catalytic subunit, immunoblot", "setting": "[4]", "result": "POSH is phosphorylated by PKA"}]}
